PubChem BioAssay AID1845195 (Molecular Pharmacology Branch, DTP, NCI, 2023)

Tested on: 156681-154-R-J1 tumor spheroid viability
Experiment: Anticancer human tumor 156681-154-R-J1 patient-derived melanoma cell line growth inhibition
Settings: spheroids with HUVEC and MSC; for IC50: curve of first compound; for viability, T/C: stronger effect = lower value
Procedure, shortened: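 Complex spheroids of malignant cells with endothelial cells and mesenchymal stem cells; agents alone or combined, from near clinical Cmax (or 10 microM if unknown) down in half-log steps, 0.25% DMSO final.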

[1] = second compound 1 µM, first compound 0.0316 µM
[2] = second compound 1 µM, first compound 0.1 µM
[3] = second compound 1 µM, first compound 0.316 µM
[4] = second compound 1 µM, first compound 1 µM
[5] = second compound 1 µM, first compound 3.16 µM
[6] = second compound 1 µM, first compound 10 µM
[7] = second compound 3.16 µM, first compound 0.0316 µM
[8] = second compound 3.16 µM, first compound 0.1 µM
[9] = second compound 3.16 µM, first compound 0.316 µM
[10] = second compound 3.16 µM, first compound 1 µM
[11] = second compound 3.16 µM, first compound 3.16 µM
[12] = second compound 3.16 µM, first compound 10 µM
[13] = second compound 10 µM, first compound 0.0316 µM
[14] = second compound 10 µM, first compound 0.1 µM
[15] = second compound 10 µM, first compound 0.316 µM
[16] = second compound 10 µM, first compound 1 µM
[17] = second compound 10 µM, first compound 3.16 µM
[18] = second compound 10 µM, first compound 10 µM
[19] = second compound 31.6 µM, first compound 0.0316 µM
[20] = second compound 31.6 µM, first compound 0.1 µM
[21] = second compound 31.6 µM, first compound 0.316 µM
[22] = second compound 31.6 µM, first compound 1 µM
[23] = second compound 31.6 µM, first compound 3.16 µM
[24] = second compound 31.6 µM, first compound 10 µM
[25] = second compound 100 µM, first compound 0.0316 µM
[26] = second compound 100 µM, first compound 0.1 µM
[27] = second compound 100 µM, first compound 0.316 µM
[28] = second compound 100 µM, first compound 1 µM
[29] = second compound 100 µM, first compound 3.16 µM
[30] = second compound 100 µM, first compound 10 µM
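Further: spheroids exposed to compounds for 7 days before readout.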
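Wherever viability, T/C is given: percent of vehicle control viability where 100% = DMSO-treated spheroids.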

## CC1COCCN1c1cc(-c2ccnn2C)c2ccnc(-c3ccn[nH]3)c2n1 (stereo not given) + Cn1nnc2c(C(N)=O)ncn2c1=O
Second compound 1 µM
  IC50: 90.7 nM
Second compound 3.16 µM
  IC50: 89.8 nM
Second compound 10 µM
  IC50: 44.3 nM
Second compound 31.6 µM
  IC50: < 31.6 nM
Second compound 100 µM
  IC50: < 31.6 nM
[1]
  viability, T/C: 66.7%
[2]
  viability, T/C: 48.5%
[3]
  viability, T/C: 32.1%
[4]
  viability, T/C: 24.1%
[5]
  viability, T/C: 22.5%
[6]
  viability, T/C: 20.2%
[7]
  viability, T/C: 73.5%
[8]
  viability, T/C: 47.7%
[9]
  viability, T/C: 26.1%
[10]
  viability, T/C: 21.3%
[11]
  viability, T/C: 20.2%
[12]
  viability, T/C: 18%
[13]
  viability, T/C: 54.4%
[14]
  viability, T/C: 39.3%
[15]
  viability, T/C: 23.2%
[16]
  viability, T/C: 19.2%
[17]
  viability, T/C: 21.9%
[18]
  viability, T/C: 15.6%
[19]
  viability, T/C: 38%
[20]
  viability, T/C: 31.4%
[21]
  viability, T/C: 18.6%
[22]
  viability, T/C: 20.2%
[23]
  viability, T/C: 21.8%
[24]
  viability, T/C: 16.2%
[25]
  viability, T/C: 23.6%
[26]
  viability, T/C: 17.1%
[27]
  viability, T/C: 12.6%
[28]
  viability, T/C: 15.3%
[29]
  viability, T/C: 16%
[30]
  viability, T/C: 17%

## COc1cc(C)[nH]c(=O)c1CN1CCc2c(Cl)cc(C(OC)C3COC3)c(Cl)c2C1=O (stereo not given) + Cn1nnc2c(C(N)=O)ncn2c1=O
Second compound 1 µM
  IC50: > 10000 nM
Second compound 3.16 µM
  IC50: > 10000 nM
Second compound 10 µM
  IC50: > 10000 nM
Second compound 31.6 µM
  IC50: > 10000 nM
Second compound 100 µM
  IC50: > 10000 nM
[1]
  viability, T/C: 115%
[2]
  viability, T/C: 103%
[3]
  viability, T/C: 116%
[4]
  viability, T/C: 115%
[5]
  viability, T/C: 81.2%
[6]
  viability, T/C: 88.5%
[7]
  viability, T/C: 107%
[8]
  viability, T/C: 144%
[9]
  viability, T/C: 90.7%
[10]
  viability, T/C: 74.9%
[11]
  viability, T/C: 127%
[12]
  viability, T/C: 130%
[13]
  viability, T/C: 84.5%
[14]
  viability, T/C: 81%
[15]
  viability, T/C: 77.7%
[16]
  viability, T/C: 75.2%
[17]
  viability, T/C: 98.7%
[18]
  viability, T/C: 67%
[19]
  viability, T/C: 70.2%
[20]
  viability, T/C: 56.7%
[21]
  viability, T/C: 60.4%
[22]
  viability, T/C: 58.4%
[23]
  viability, T/C: 54%
[24]
  viability, T/C: 65.7%
[25]
  viability, T/C: 45%
[26]
  viability, T/C: 66%
[27]
  viability, T/C: 51.7%
[28]
  viability, T/C: 62.9%
[29]
  viability, T/C: 68.7%
[30]
  viability, T/C: 61.4%

## Cc1cc(C)c(CNC(=O)c2cc(-c3ccc(CN4CCOCC4)cc3)cc3c2cnn3C2CCCC2)c(=O)[nH]1 + Cn1nnc2c(C(N)=O)ncn2c1=O
Second compound 1 µM
  IC50: > 10000 nM
Second compound 3.16 µM
  IC50: > 10000 nM
Second compound 10 µM
  IC50: > 10000 nM
Second compound 31.6 µM
  IC50: > 10000 nM
Second compound 100 µM
  IC50: > 10000 nM
[1]
  viability, T/C: 72.6%
[2]
  viability, T/C: 107%
[3]
  viability, T/C: 90.2%
[4]
  viability, T/C: 92.4%
[5]
  viability, T/C: 79.6%
[6]
  viability, T/C: 82.4%
[7]
  viability, T/C: 90.6%
[8]
  viability, T/C: 72.7%
[9]
  viability, T/C: 83.7%
[10]
  viability, T/C: 87.2%
[11]
  viability, T/C: 68.8%
[12]
  viability, T/C: 84.4%
[13]
  viability, T/C: 105%
[14]
  viability, T/C: 73.3%
[15]
  viability, T/C: 72.4%
[16]
  viability, T/C: 67.1%
[17]
  viability, T/C: 69.2%
[18]
  viability, T/C: 77.5%
[19]
  viability, T/C: 74.2%
[20]
  viability, T/C: 65.7%
[21]
  viability, T/C: 50.5%
[22]
  viability, T/C: 63%
[23]
  viability, T/C: 51.9%
[24]
  viability, T/C: 58.4%
[25]
  viability, T/C: 51.2%
[26]
  viability, T/C: 61.9%
[27]
  viability, T/C: 67.2%
[28]
  viability, T/C: 52.3%
[29]
  viability, T/C: 56%
[30]
  viability, T/C: 55.6%

## Cc1sc2c(c1C)C(c1ccc(Cl)cc1)=NC(CC(=O)Nc1ccc(O)cc1)c1nnc(C)n1-2 (stereo not given) + Cn1nnc2c(C(N)=O)ncn2c1=O
Second compound 1 µM
  IC50: > 3000 nM
Second compound 3.16 µM
  IC50: 857 nM
Second compound 10 µM
  IC50: 128 nM
Second compound 31.6 µM
  IC50: 20.4 nM
Second compound 100 µM
  IC50: 14.8 nM
Second compound 1 µM, first compound 0.00949 µM
  viability, T/C: 92%
Second compound 1 µM, first compound 0.03 µM
  viability, T/C: 76%
Second compound 1 µM, first compound 0.0949 µM
  viability, T/C: 81.5%
Second compound 1 µM, first compound 0.3 µM
  viability, T/C: 80.7%
Second compound 1 µM, first compound 0.949 µM
  viability, T/C: 70.9%
Second compound 1 µM, first compound 3 µM
  viability, T/C: 57%
Second compound 3.16 µM, first compound 0.00949 µM
  viability, T/C: 90.3%
Second compound 3.16 µM, first compound 0.03 µM
  viability, T/C: 70.2%
Second compound 3.16 µM, first compound 0.0949 µM
  viability, T/C: 76.4%
Second compound 3.16 µM, first compound 0.3 µM
  viability, T/C: 54.9%
Second compound 3.16 µM, first compound 0.949 µM
  viability, T/C: 52.4%
Second compound 3.16 µM, first compound 3 µM
  viability, T/C: 37.4%
Second compound 10 µM, first compound 0.00949 µM
  viability, T/C: 79.1%
Second compound 10 µM, first compound 0.03 µM
  viability, T/C: 75.5%
Second compound 10 µM, first compound 0.0949 µM
  viability, T/C: 47.9%
Second compound 10 µM, first compound 0.3 µM
  viability, T/C: 41.3%
Second compound 10 µM, first compound 0.949 µM
  viability, T/C: 35.6%
Second compound 10 µM, first compound 3 µM
  viability, T/C: 24.4%
Second compound 31.6 µM, first compound 0.00949 µM
  viability, T/C: 62.3%
Second compound 31.6 µM, first compound 0.03 µM
  viability, T/C: 43%
Second compound 31.6 µM, first compound 0.0949 µM
  viability, T/C: 31.8%
Second compound 31.6 µM, first compound 0.3 µM
  viability, T/C: 29%
Second compound 31.6 µM, first compound 0.949 µM
  viability, T/C: 22.6%
Second compound 31.6 µM, first compound 3 µM
  viability, T/C: 18.6%
Second compound 100 µM, first compound 0.00949 µM
  viability, T/C: 53.4%
Second compound 100 µM, first compound 0.03 µM
  viability, T/C: 44.5%
Second compound 100 µM, first compound 0.0949 µM
  viability, T/C: 26.4%
Second compound 100 µM, first compound 0.3 µM
  viability, T/C: 13.6%
Second compound 100 µM, first compound 0.949 µM
  viability, T/C: 12.3%
Second compound 100 µM, first compound 3 µM
  viability, T/C: 11.7%

## [2H]c1nc(C)nc([2H])c1-c1cc(NC[C@@H](C)c2cccc3c(C(=O)NC)ccnc23)ncn1 + Cn1nnc2c(C(N)=O)ncn2c1=O
Second compound 1 µM
  IC50: > 10000 nM
Second compound 3.16 µM
  IC50: > 10000 nM
Second compound 10 µM
  IC50: > 10000 nM
Second compound 31.6 µM
  IC50: > 10000 nM
Second compound 100 µM
  IC50: 2470 nM
[1]
  viability, T/C: 117%
[2]
  viability, T/C: 107%
[3]
  viability, T/C: 104%
[4]
  viability, T/C: 83.8%
[5]
  viability, T/C: 92.8%
[6]
  viability, T/C: 82.4%
[7]
  viability, T/C: 71.8%
[8]
  viability, T/C: 101%
[9]
  viability, T/C: 114%
[10]
  viability, T/C: 112%
[11]
  viability, T/C: 120%
[12]
  viability, T/C: 87.4%
[13]
  viability, T/C: 80%
[14]
  viability, T/C: 69.7%
[15]
  viability, T/C: 59.7%
[16]
  viability, T/C: 63.8%
[17]
  viability, T/C: 73.3%
[18]
  viability, T/C: 64.9%
[19]
  viability, T/C: 54.9%
[20]
  viability, T/C: 58.6%
[21]
  viability, T/C: 48.7%
[22]
  viability, T/C: 47.9%
[23]
  viability, T/C: 52%
[24]
  viability, T/C: 54%
[25]
  viability, T/C: 55.3%
[26]
  viability, T/C: 47.8%
[27]
  viability, T/C: 54.4%
[28]
  viability, T/C: 52.4%
[29]
  viability, T/C: 48.3%
[30]
  viability, T/C: 48.9%
